Results published in patent publication US11661422B2, “Tricyclic urea compounds as JAK2 V617F inhibitors” (Incyte Corporation, priority 2020, dated 2023).
Structures can show the parent of a compound that is named as a salt.

What was measured:
[1] = target: pseudo-kinase domain (JH2, amino-acids 536-812) of human Wild Type JAK2 (Homo sapiens (Human), UniProt O60674, F794H/W659A/W777A); assay: JAK2 LanthaScreen JH2-WT Binding Assay; conditions: JAK2 JH2-WT 0.145 nM, 50 nM fluorescent tracer, 1 hour at 25° C.; read-out: JH2 BIND WT IC50
Chain of pseudo-kinase domain (JH2, amino-acids 536-812) of human Wild Type JAK2 (O60674 536-812 W659A/W777A/F794H): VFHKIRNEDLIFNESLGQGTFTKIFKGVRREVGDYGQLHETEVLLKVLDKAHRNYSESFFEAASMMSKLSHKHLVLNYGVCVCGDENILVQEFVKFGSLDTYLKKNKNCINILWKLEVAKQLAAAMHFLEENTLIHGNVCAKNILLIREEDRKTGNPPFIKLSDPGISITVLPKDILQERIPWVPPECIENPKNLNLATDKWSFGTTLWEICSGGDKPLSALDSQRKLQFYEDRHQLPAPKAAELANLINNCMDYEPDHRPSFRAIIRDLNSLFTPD
Description: Example B. JAK2 LanthaScreen JH2-WT Binding Assay
(§1) The assay was conducted in black 384-well polystyrene plates in a final reaction volume of 20 μL. JAK2 JH2-WT (0.145 nM) was incubated with compounds (100 nL serially diluted in DMSO) in the presence of 50 nM Fluorescent JAK2-JH2 Tracer (MedChem Express Catalog #HY-102055) and 0.25 nM Streptavidin-Tb cryptate (Cisbio Part #610SATLB) in assay buffer (50 mM Tris, pH=7.5, 10 mM MgCl2, 0.01% Brij-35, 0.1% BSA, 1 mM EGTA, 5% Glycerol and 5 mM DTT). Non-specific binding was accessed in the presence of 2 mM ATP. After incubation for 1 hour at 25° C., LanthaScreen signals were read on a PHERAstar FS plate reader (BMG LABTECH). Data was analyzed with IDBS XLfit and GraphPad Prism 5.0 software using a four parameter dose response curve to determine IC50 for each compound.

[2] = target: catalytic domain (JH1, amino acids 808-1132) of human JAK2 (Homo sapiens (Human), UniProt O60674); assay: JAK2 HTRF Enzyme Activity Assay; format: biochemical; conditions: JAK2 0.015 nM, ATP (30 μM or 1 mM), 60 minutes at 25° C.
Chain of catalytic domain (JH1, amino acids 808-1132) of human JAK2 (O60674 808-1132): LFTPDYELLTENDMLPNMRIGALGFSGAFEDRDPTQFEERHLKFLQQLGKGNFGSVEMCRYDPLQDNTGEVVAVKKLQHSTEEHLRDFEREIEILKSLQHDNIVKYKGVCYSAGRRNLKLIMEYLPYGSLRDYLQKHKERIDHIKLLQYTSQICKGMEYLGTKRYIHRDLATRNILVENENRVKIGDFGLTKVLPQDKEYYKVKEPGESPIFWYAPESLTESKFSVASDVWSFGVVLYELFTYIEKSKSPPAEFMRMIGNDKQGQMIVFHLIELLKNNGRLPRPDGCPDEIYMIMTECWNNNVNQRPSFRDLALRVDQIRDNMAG
Description: Example D. JAK2 HTRF Enzyme Activity Assay
JAK2 enzyme activity assays utilize catalytic domain (JH1, amino acids 808-1132) of human JAK2 expressed as N-terminal His-tagged protein in a baculovirus expression system (BPS Bioscience, Catalog #40450). The assays was conducted in black 384-well polystyrene plates in a final reaction volume of 20 μL. JAK2 (0.015 nM) was incubated with compounds (100 nL serially diluted in DMSO) in the presence of ATP (30 μM or 1 mM) and 500 nM Biotin-labeled […] (SEQ ID NO.: 1) peptide (BioSource International, custom synthesis) in assay buffer (50 mM Tris, pH=7.5, 10 mM MgCl2, 0.01% Brij-35, 0.1% BSA, 1 mM EGTA, 5% Glycerol and 5 mM DTT) for 60 minutes at 25° C. The reactions were stopped by the addition of 10 μL of detection buffer (50 mM Tris, pH 7.8, 0.5 mg/mL BSA, 150 mM NaCl), supplemented with EDTA, LANCE Eu-W1024 anti-phosphotyrosine (PY20), (PerkinElmer, Catalog #AD0067) and Streptavidin SureLight APC (PerkinElmer Catalog #CR130-100), for a final concentration of 15 mM, 1.5 nM and 75 nM, respectively. HTRF signals were read after 30 minutes incubation at room temperature on a PHERAstar FS plate reader (BMG LABTECH). Data was analyzed with IDBS XLfit and GraphPad Prism 5.0 software using a four parameter dose response curve to determine IC50 for each compound.

[3] = target: pseudo-kinase domain (JH2, amino-acids 536-812) of human V617F mutant JAK2 (Homo sapiens (Human), UniProt O60674, F794H/V617F/W659A/W777A); assay: JAK2 LanthaScreen JH2-V617F Binding Assay; conditions: JAK2 JH2-V617F 0.26 nM, 50 nM fluorescent tracer, 1 hour at 25° C.; read-out: JH2 BIND V617F IC50
Chain of pseudo-kinase domain (JH2, amino-acids 536-812) of human V617F mutant JAK2 (O60674 536-812 V617F/W659A/W777A/F794H): as the sequence (O60674 536-812 W659A/W777A/F794H) above, with V82F counted along it
Description: The assay was conducted in black 384-well polystyrene plates in a final reaction volume of 20 μL. […] Non-specific binding was accessed in the presence of 2 mM ATP. After incubation for 1 hour at 25° C., LanthaScreen signals were read on a PHERAstar FS plate reader (BMG LABTECH). Data was analyzed with IDBS XLfit and GraphPad Prism 5.0 software using a four parameter dose response curve to determine IC50 for each compound.

[4] = target: catalytic domain (JH1, amino acids 826-1132) of human JAK2 (Homo sapiens (Human), UniProt O60674); assay: JAK2 LanthaScreen JH1 Binding Assay; conditions: JAK2 JH1 1.5 nM, 50 nM fluorescent tracer, 2 hours at 25° C.; read-out: JH1 BIND IC50
Chain of catalytic domain (JH1, amino acids 826-1132) of human JAK2 (O60674 826-1132): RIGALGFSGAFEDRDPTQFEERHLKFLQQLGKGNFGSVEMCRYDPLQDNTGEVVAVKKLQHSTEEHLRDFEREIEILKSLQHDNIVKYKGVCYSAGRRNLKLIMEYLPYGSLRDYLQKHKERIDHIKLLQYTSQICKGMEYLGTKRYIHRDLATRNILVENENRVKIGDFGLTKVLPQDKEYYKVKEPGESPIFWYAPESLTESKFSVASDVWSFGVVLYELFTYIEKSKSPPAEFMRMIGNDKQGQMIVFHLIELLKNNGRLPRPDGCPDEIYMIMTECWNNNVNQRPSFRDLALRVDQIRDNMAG
Description: Example A. JAK2 LanthaScreen JH1 Binding Assay
as §1, with “JAK2 JH1 binding assay utilizes catalytic domain (JH1, amino acids 826-1132) of human JAK2 expressed as N-terminal FLAG-tagged, biotinylated protein in a baculovirus expression system (Carna Biosciences, Product #08-445-20N). The” for “The”, “JH1 (1.5” for “JH2-WT (0.145”, “JAK2-JH1” for “JAK2-JH2”, “Tracer” for “Tracer (MedChem Express Catalog #HY-102055)”, “0.5” for “0.25”, “2 hours” for “1 hour”

SMILES	IC50 [1]	IC50 [2]	IC50 [3]	IC50 [4]
CC(=O)N1CC=C(c2c(-c3ccc(CN4CCC(S(C)(=O)=O)CC4)cc3)[nH]c3ncc4c(c23)CN(c2ccc(C(=O)O)cc2)C(=O)N4C)CC1 [Example 20, 4-(9-(1-Acetyl-1,2,3,6-tetrahydropyridin-4-yl)-4-methyl-8-(4-((4-(methylsulfonyl)piperidin-1-yl)methyl)phenyl)-3-oxo-1,3,4,7-tetrahydro-2H-pyrrolo[3′,2′:5,6]pyrido[3,4-d]pyrimidin-2-yl)benzoic acid Trifluoroacetic Acid Salt]	≤ 100 nM	> 2500 nM	≤ 100 nM	> 2500 nM
CN1C(=O)NCc2c1cnc1[nH]c(-c3ccc(CN4CCC(S(C)(=O)=O)CC4)cc3)cc21 [Example 1, 4-Methyl-8-(4-((4-(methylsulfonyl)piperidin-1-yl)methyl)phenyl)-1,2,4,7-tetrahydro-3H-pyrrolo[3′,2′:5,6]pyrido[3,4-d]pyrimidin-3-one]	100 to 500 nM	≤ 100 nM	500 to 1000 nM	≤ 100 nM
CC1c2c(cnc3[nH]c(-c4ccc(CN5CCC(S(C)(=O)=O)CC5)cc4)cc23)N(C)C(=O)N1c1ccc(C(=O)O)cc1 (racemic) [Example 10, 4-(1,4-Dimethyl-8-(4-((4-(methylsulfonyl)piperidin-1-yl)methyl)phenyl)-3-oxo-1,3,4,7-tetrahydro-2H-pyrrolo[3′,2′:5,6]pyrido[3,4-d]pyrimidin-2-yl)benzoic Acid]	≤ 100 nM	1000 to 2500 nM	100 to 500 nM	1000 to 2500 nM
CN1C(=O)N(c2ccc(C(=O)O)cc2)Cc2c1cnc1[nH]c(-c3ccc(CN4CCC(S(C)(=O)=O)CC4)cc3)c(C3CC3)c21 [Example 23, 4-(9-Cyclopropyl-4-methyl-8-(4-((4-(methylsulfonyl)piperidin-1-yl)methyl)phenyl)-3-oxo-1,3,4,7-tetrahydro-2H-pyrrolo[3′,2′:5,6]pyrido[3,4-d]pyrimidin-2-yl)benzoic acid, trifluoroacetic acid salt]	≤ 100 nM	> 2500 nM	≤ 100 nM	> 2500 nM
CN1C(=O)N(c2ccc(NC(=O)CC#N)cc2)Cc2c1cnc1[nH]c(-c3ccc(CN4CCC(S(C)(=O)=O)CC4)cc3)cc21 [Example 9, 2-Cyano-N-(4-(4-methyl-8-(4-((4-(methylsulfonyl)piperidin-1-yl)methyl)phenyl)-3-oxo-1,3,4,7-tetrahydro-2H-pyrrolo[3′,2′:5,6]pyrido[3,4-d]pyrimidin-2-yl)phenyl)acetamide]	100 to 500 nM	100 to 500 nM	100 to 500 nM	100 to 500 nM
CS(=O)(=O)C1CCN(Cc2ccc(-c3cc4c5c(cnc4[nH]3)NC(=O)N(C3CCCCC3)C5)cc2)CC1 [Example 5, 2-Cyclohexyl-8-(4-((4-(methylsulfonyl)piperidin-1-yl)methyl)phenyl)-1,2,4,7-tetrahydro-3H-pyrrolo[3′,2′:5,6]pyrido[3,4-d]pyrimidin-3-one]	100 to 500 nM	≤ 100 nM	500 to 1000 nM	≤ 100 nM
COCCNc1ccc(N2Cc3c(cnc4[nH]c(-c5ccc(CN6CCC(S(C)(=O)=O)CC6)cc5)cc34)N(C)C2=O)cc1 [Example 8, 2-(4-((2-Methoxyethyl)amino)phenyl)-4-methyl-8-(4-((4-(methylsulfonyl)piperidin-1-yl)methyl)phenyl)-1,2,4,7-tetrahydro-3H-pyrrolo[3′,2′:5,6]pyrido[3,4-d]pyrimidin-3-one]	100 to 500 nM	100 to 500 nM	500 to 1000 nM	100 to 500 nM
CN1C(=O)N(c2ccc(C(=O)O)cc2)Cc2c1cnc1[nH]c(-c3ccc(CN4CCC(S(C)(=O)=O)CC4)cc3)c(-c3ccn(C)c3)c21 [Example 22, 4-(4-Methyl-9-(1-methyl-1H-pyrrol-3-yl)-8-(4-((4-(methylsulfonyl)piperidin-1-yl)methyl)phenyl)-3-oxo-1,3,4,7-tetrahydro-2H-pyrrolo[3′,2′:5,6]pyrido[3,4-d]pyrimidin-2-yl)benzoic acid trifluoroacetic acid salt]	≤ 100 nM	1000 to 2500 nM	≤ 100 nM	1000 to 2500 nM
CN1C(=O)N(c2ccc(C(=O)O)cc2)Cc2c1cnc1[nH]c(-c3ccc(CN4CCC(S(C)(=O)=O)CC4)cc3)cc21 [Example 3, 4-(4-Methyl-8-(4-((4-(methylsulfonyl)piperidin-1-yl)methyl)phenyl)-3-oxo-1,3,4,7-tetrahydro-2H-pyrrolo[3′,2′:5,6]pyrido[3,4-d]pyrimidin-2-yl)benzoic Acid]	≤ 100 nM	1000 to 2500 nM	≤ 100 nM	1000 to 2500 nM
COC(=O)c1c(-c2ccc(CN3CCC(S(C)(=O)=O)CC3)cc2)[nH]c2ncc3c(c12)CN(c1ccc(C(=O)O)cc1)C(=O)N3C [Example 15, 4-(9-(Methoxycarbonyl)-4-methyl-8-(4-((4-(methylsulfonyl)piperidin-1-yl)methyl)phenyl)-3-oxo-1,3,4,7-tetrahydro-2H-pyrrolo[3′,2′:5,6]pyrido[3,4-d]pyrimidin-2-yl)benzoic acid Trifluoroacetic Acid Salt]	100 to 500 nM	> 2500 nM	100 to 500 nM	> 2500 nM
CNS(=O)(=O)c1ccc(-c2c(-c3ccc(CN4CCC(S(C)(=O)=O)CC4)cc3)[nH]c3ncc4c(c23)CN(C(C)(C)C)C(=O)N4C)cc1 [Example 17, 4-(2-(tert-Butyl)-4-methyl-8-(4-((4-(methylsulfonyl)piperidin-1-yl)methyl)phenyl)-3-oxo-2,3,4,7-tetrahydro-1H-pyrrolo[3′,2′:5,6]pyrido[3,4-d]pyrimidin-9-yl)-N-methylbenzenesulfonamide, trifluoroacetic acid salt]	≤ 100 nM	≤ 100 nM	≤ 100 nM	≤ 100 nM
CN1C(=O)N(c2ccc(C(=O)O)cc2)Cc2c1cnc1[nH]c(-c3ccc(CN4CCC(S(C)(=O)=O)CC4)cc3)c(I)c21 [Example 25, 4-(9-Iodo-4-methyl-8-(4-((4-(methylsulfonyl)piperidin-1-yl)methyl)phenyl)-3-oxo-1,3,4,7-tetrahydro-2H-pyrrolo[3′,2′:5,6]pyrido[3,4-d]pyrimidin-2-yl)benzoic acid Trifluoroacetic Acid Salt]	≤ 100 nM	1000 to 2500 nM	≤ 100 nM	500 to 1000 nM
